≈ marks a conversion by molar mass, not a printed value. Read-outs that look alike come from different tables or passages of the source.
What was measured:
[1] = molecular target: T1, PBP3 from Pseudomonas aeruginosa (PAO1) (Pseudomonas aeruginosa, UniProt G3XD46); test: Bocillin-FL fluorescence polarization competition binding, P. aeruginosa PBP3; settings: Binding affinity to P. aeruginosa PBP3; fluorescence polarization competition binding assay using Bocillin-FL; read-out: P. aeruginosa PBP3 Potency
T1 construct: made in house
How it was run: (§1)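 Purified PBPs pre-incubated with inhibitor (E. coli PBP3 1.5 μM, 30 min; P. aeruginosa PBP3 0.75 μM, A. baumannii PBP1a 1 μM and PBP3 0.2 μM, 15 min), then Bocillin-FL 0.1 μM (0.05 μM for PBP1a) added; FP read up to 60 min. EC50 = concentration halving bound Bocillin-FL.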

[2] = molecular target: T2, PBP3 from Acinetobacter baumannii (ATCC 19606) (Acinetobacter baumannii, UniProt A0ABX6CK25); test: Bocillin-FL fluorescence polarization competition binding, A. baumannii PBP3; settings: fluorescence polarization competition binding assay using Bocillin-FL; read-out: A. baumannii PBP3 Potency
T2 sequence (A0ABX6CK25 64-610): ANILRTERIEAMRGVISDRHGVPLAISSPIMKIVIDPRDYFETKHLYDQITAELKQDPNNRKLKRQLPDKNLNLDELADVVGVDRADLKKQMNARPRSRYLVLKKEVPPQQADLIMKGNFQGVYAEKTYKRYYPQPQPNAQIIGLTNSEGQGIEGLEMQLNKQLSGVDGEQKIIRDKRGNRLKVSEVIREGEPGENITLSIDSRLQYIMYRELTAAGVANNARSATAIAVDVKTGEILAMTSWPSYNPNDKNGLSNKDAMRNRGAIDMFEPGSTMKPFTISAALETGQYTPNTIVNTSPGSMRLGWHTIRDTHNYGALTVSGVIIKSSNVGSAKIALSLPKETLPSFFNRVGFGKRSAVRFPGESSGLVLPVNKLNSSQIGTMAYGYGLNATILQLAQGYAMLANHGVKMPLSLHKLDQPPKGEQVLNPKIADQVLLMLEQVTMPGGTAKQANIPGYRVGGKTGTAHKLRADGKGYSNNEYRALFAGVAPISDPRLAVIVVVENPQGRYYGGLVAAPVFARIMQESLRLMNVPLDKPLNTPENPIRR
How it was run: as §1

A. baumannii ATCC 17978 = test: microbe, parasite or virus in culture; format: cell-based; settings: Acinetobacter baumannii
A. baumannii ATCC 19606 = test: microbe, parasite or virus in culture; format: cell-based; settings: Acinetobacter baumannii
P. aeruginosa ATCC 35151 = test: microbe, parasite or virus in culture; format: cell-based; settings: Pseudomonas aeruginosa, ATCC35151, read-out: Minimum inhibitory concentration, P. aeruginosa ATCC 35151
P. aeruginosa CDC-0095 = test: microbe, parasite or virus in culture; format: cell-based; settings: Pseudomonas aeruginosa, CDC0095, read-out: Minimum inhibitory concentration, P. aeruginosa CDC-0095
A. baumannii CDC-0033 = test: microbe, parasite or virus in culture; format: cell-based; settings: Acinetobacter baumannii
A. baumannii CDC-0036 = test: microbe, parasite or virus in culture; format: cell-based; settings: Acinetobacter baumannii
[3] = tested on: B. thailandensis ATCC 700388; test: microbe, parasite or virus in culture; format: cell-based; settings: Burkholderia thailandensis, ATCC700388, read-out: Minimum inhibitory concentration (MIC), B. thailandensis ATCC 700388
P. aeruginosa CDC-0110 = test: microbe, parasite or virus in culture; format: cell-based; settings: Pseudomonas aeruginosa, CDC0110, read-out: Minimum inhibitory concentration, P. aeruginosa CDC-0110
[4] = ATCC17978, read-out: MIC, A. baumannii ATCC 17978
[5] = ATCC19606, read-out: MIC, A. baumannii ATCC 19606
[6] = CDC0033, read-out: MIC, A. baumannii CDC-0033
[7] = CDC0036, read-out: MIC, A. baumannii CDC-0036

T1 sequence (G3XD46 whole entry): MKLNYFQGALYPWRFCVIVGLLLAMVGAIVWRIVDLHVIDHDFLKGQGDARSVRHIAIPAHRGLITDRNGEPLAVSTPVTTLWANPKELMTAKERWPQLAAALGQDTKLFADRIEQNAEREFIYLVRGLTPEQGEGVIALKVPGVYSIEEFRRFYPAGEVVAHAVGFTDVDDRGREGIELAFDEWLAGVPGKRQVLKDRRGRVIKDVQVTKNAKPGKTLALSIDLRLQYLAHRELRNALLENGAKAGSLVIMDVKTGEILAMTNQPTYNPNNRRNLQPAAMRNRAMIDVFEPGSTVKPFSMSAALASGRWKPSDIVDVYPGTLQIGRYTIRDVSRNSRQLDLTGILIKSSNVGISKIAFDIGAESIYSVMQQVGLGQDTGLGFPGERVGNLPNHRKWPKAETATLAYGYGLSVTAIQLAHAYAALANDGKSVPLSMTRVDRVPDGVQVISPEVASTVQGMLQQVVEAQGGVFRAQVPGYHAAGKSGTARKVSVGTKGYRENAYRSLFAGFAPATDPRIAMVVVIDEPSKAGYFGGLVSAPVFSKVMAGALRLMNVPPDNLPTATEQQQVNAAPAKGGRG

SMILES | IC50 [1] [µM] | IC50 [2] [µM] | MIC (A. baumannii ATCC 17978; [4]) [µg/mL] | MIC (A. baumannii ATCC 19606; [5]) [µg/mL] | MIC (P. aeruginosa ATCC 35151) [µg/mL] | MIC (P. aeruginosa CDC-0095) [µg/mL] | MIC (A. baumannii CDC-0033; [6]) [µg/mL] | MIC (A. baumannii CDC-0036; [7]) [µg/mL] | MIC [3] [µg/mL] | MIC (P. aeruginosa CDC-0110) [µg/mL] | MIC (A. baumannii ATCC 17978; ATCC17978, read-out: Minimum inhibitory concentration (MIC), A. baumannii ATCC 17978) [µg/mL] | MIC (A. baumannii ATCC 19606; ATCC19606, read-out: Minimum inhibitory concentration (MIC), A. baumannii ATCC 19606) [µg/mL] | MIC (A. baumannii CDC-0033; CDC0033, read-out: Minimum inhibitory concentration (MIC), A. baumannii CDC-0033) [µg/mL] | MIC (A. baumannii CDC-0036; CDC0036, read-out: Minimum inhibitory concentration (MIC), A. baumannii CDC-0036) [µg/mL]
O=C(O)c1c(F)ccc2c1OB(O)[C@@H](NC(=O)[C@H](NC(=O)N1CCN(C3CCN(C(=O)Nc4cccc(O)c4Cl)CC3)C1=O)c1cc(F)c(O)c(O)c1Cl)C2 [Example 447, (R)-3-((R)-2-(3-(1-((2-chloro-3-hydroxyphenyl)carbamoyl)piperidin-4-yl)-2-oxoimidazolidine-1-carboxamido)-2-(2-chloro-5-fluoro-3,4-dihydroxyphenyl)acetamido)-7-fluoro-2-hydroxy-3,4-dihydro-2H-benzo[e][1,2]oxaborinine-8-carboxylic acid] | < 10 | < 10 | < 1 | < 1 | < 1 | < 1 | < 1 | < 1 | < 1 | < 1 |  |  |  | 
O=C(O)c1c(F)ccc2c1OB(O)[C@@H](NC(=O)[C@H](NC(=O)N1CCN(Cc3ccc(O)c(O)c3Cl)C(=O)C1=O)c1cccc(P(=O)(O)O)c1)C2 (single isomer, unassigned) [Example 163] | < 10 | < 10 | < 1 | < 1 | < 1 | < 1 | < 1 | < 1 | < 1 | < 1 |  |  |  | 
O=C(O)c1c(F)ccc2c1OB(O)[C@@H](NC(=O)[C@H](NC(=O)N1CCN(C3CCN(C(=O)c4cccnc4)CC3)C1=O)c1cc(F)c(O)c(O)c1Cl)C2 [Example 460, (R)-3-((R)-2-(2-chloro-5-fluoro-3,4-dihydroxyphenyl)-2-(3-(1-nicotinoylpiperidin-4-yl)-2-oxoimidazolidine-1-carboxamido)acetamido)-7-fluoro-2-hydroxy-3,4-dihydro-2H-benzo[e][1,2]oxaborinine-8-carboxylic acid] | < 10 | < 10 | < 1 | < 1 | < 1 | < 1 | < 1 | < 1 | < 1 | < 1 |  |  |  | 
O=C(O)c1c(F)ccc2c1OB(O)[C@@H](NC(=O)[C@H](NC(=O)N1CCN(C3CCN(C(=O)c4ccc(O)cc4)CC3)C1=O)c1cc(F)c(O)c(O)c1Cl)C2 (single isomer, unassigned) [Example 463] | < 10 | < 10 | < 1 | < 1 | < 1 | < 1 | < 1 | < 1 | < 1 | < 1 |  |  |  | 
O=C(O)c1c(F)ccc2c1OB(O)[C@@H](NC(=O)C(NC(=O)N1CCN(C3CCN(C(=O)Nc4cc(O)cc(F)c4)CC3)C(=O)C1=O)c1cc(F)c(O)c(O)c1Cl)C2 (stereo partly drawn) [Example 481, (3R)-3-(2-(2-chloro-5-fluoro-3,4-dihydroxyphenyl)-2-(4-(1-((3-fluoro-5-hydroxyphenyl)carbamoyl)piperidin-4-yl)-2,3-dioxopiperazine-1-carboxamido)acetamido)-7-fluoro-2-hydroxy-3,4-dihydro-2H-benzo[e][1,2]oxaborinine-8-carboxylic acid] | < 10 | < 10 | < 1 | < 1 | < 1 | < 1 | 2 to 4 (≈ 2.44 to 4.88 µM) | < 1 | 2 to 4 (≈ 2.44 to 4.88 µM) | < 1 |  |  |  | 
O=C(O)c1c(F)ccc2c1OB(O)[C@@H](NC(=O)[C@H](NC(=O)N1CCN(C3CCN(C(=O)c4cc(F)c(F)c(O)c4F)CC3)C1=O)c1cc(F)c(O)c(O)c1Cl)C2 (single isomer, unassigned) [Example 441] | < 10 | < 10 | < 1 | < 1 | < 1 | < 1 | < 1 | < 1 | < 1 | < 1 |  |  |  | 
O=C(O)c1c(F)ccc2c1OB(O)[C@@H](NC(=O)[C@H](NC(=O)N1CCN(C3CCN(C(=O)Nc4c(F)ccc(O)c4Cl)CC3)C1=O)c1cc(F)c(O)c(O)c1Cl)C2 (single isomer, unassigned) [Example 455] | < 10 | < 10 | < 1 | < 1 | < 1 | < 1 | < 1 | < 1 | < 1 | < 1 |  |  |  | 
O=C(O)c1c(F)ccc2c1OB(O)[C@@H](NC(=O)[C@H](NC(=O)N1CCN(C3CCN(C(=O)c4cccc(O)c4)CC3)C1=O)c1cc(F)c(O)c(O)c1Cl)C2 (single isomer, unassigned) [Example 430] | < 10 | < 10 | < 1 | < 1 | < 1 | < 1 | 8 to 16 (≈ 10.6 to 21.1 µM) | 8 to 16 (≈ 10.6 to 21.1 µM) | < 1 | < 1 |  |  |  | 
O=C(O)c1c(F)ccc2c1OB(O)[C@@H](NC(=O)[C@H](NC(=O)N1CCN(C3CCN(C(=O)c4cc(O)c(F)c(O)c4)CC3)C1=O)c1cc(F)c(O)c(O)c1Cl)C2 (single isomer, unassigned) [Example 443] | < 10 | < 10 | < 1 | < 1 | < 1 | < 1 | < 1 | < 1 | < 1 | < 1 |  |  |  | 
O=C(O)c1c(F)ccc2c1OB(O)[C@@H](NC(=O)C(NC(=O)N1CCN(C3CCN(C(=O)Nc4ccc(F)c(O)c4F)CC3)C(=O)C1=O)c1cc(F)c(O)c(O)c1Cl)C2 (stereo partly drawn) [Example 486, (3R)-3-(2-(2-chloro-5-fluoro-3,4-dihydroxyphenyl)-2-(4-(1-((2,4-difluoro-3-hydroxyphenyl)carbamoyl)piperidin-4-yl)-2,3-dioxopiperazine-1-carboxamido)acetamido)-7-fluoro-2-hydroxy-3,4-dihydro-2H-benzo[e][1,2]oxaborinine-8-carboxylic acid] | < 10 | < 10 |  |  | < 1 | < 1 |  |  | 2 to 4 (≈ 2.39 to 4.78 µM) | < 1 | < 1 | < 1 | 2 to 4 (≈ 2.39 to 4.78 µM) | < 1
O=C(O)c1cccc2c1OB(O)[C@@H](NC(=O)C(NC(=O)N1CCN(Cc3cc(F)c(O)c(O)c3Cl)C(=O)C1=O)c1ccc(P(=O)(O)O)cc1)C2 (stereo partly drawn) [Example 164, (3R)-3-(2-(4-(2-chloro-5-fluoro-3,4-dihydroxybenzyl)-2,3-dioxopiperazine-1-carboxamido)-2-(4-phosphonophenyl)acetamido)-2-hydroxy-3,4-dihydro-2H-benzo[e][1,2]oxaborinine-8-carboxylic acid] | < 10 | < 10 | < 1 | < 1 | < 1 | < 1 | < 1 | < 1 | < 1 | < 1 |  |  |  | 
O=C(O)c1c(F)ccc2c1OB(O)[C@@H](NC(=O)[C@H](NC(=O)N1CCN(Cc3ccc(O)c(O)c3Cl)C(=O)C1=O)c1ccc(P(=O)(O)O)cc1)C2 (single isomer, unassigned) [Example 160] | < 10 | < 10 | < 1 | < 1 | < 1 | < 1 | < 1 | < 1 | < 1 | < 1 |  |  |  | 

Reference: patent US20240270762A1, “PENICILLIN-BINDING PROTEIN INHIBITORS” (priority 2021, published 2024)
